Test results taken from patent US20190234956A1 (priority 2016, published 2019).

Tests used:
[1] = background statement; cited from earlier work
full-length Hs sGC = target: T1, full-length Hs sGC (Homo sapiens, UniProt Q02153); assay: Photoaffinity labeling with IWP-854, western blot, full-length Hs sGC; type: binding; settings: IWP-854 1 μM; not competed away with excess stimulator
T1 construct: Full-length human sGC was purchased from Enzo Life Sciences, Inc; purchased Enzo Life Sciences, Inc
T1 sequence (Q02153 1-619): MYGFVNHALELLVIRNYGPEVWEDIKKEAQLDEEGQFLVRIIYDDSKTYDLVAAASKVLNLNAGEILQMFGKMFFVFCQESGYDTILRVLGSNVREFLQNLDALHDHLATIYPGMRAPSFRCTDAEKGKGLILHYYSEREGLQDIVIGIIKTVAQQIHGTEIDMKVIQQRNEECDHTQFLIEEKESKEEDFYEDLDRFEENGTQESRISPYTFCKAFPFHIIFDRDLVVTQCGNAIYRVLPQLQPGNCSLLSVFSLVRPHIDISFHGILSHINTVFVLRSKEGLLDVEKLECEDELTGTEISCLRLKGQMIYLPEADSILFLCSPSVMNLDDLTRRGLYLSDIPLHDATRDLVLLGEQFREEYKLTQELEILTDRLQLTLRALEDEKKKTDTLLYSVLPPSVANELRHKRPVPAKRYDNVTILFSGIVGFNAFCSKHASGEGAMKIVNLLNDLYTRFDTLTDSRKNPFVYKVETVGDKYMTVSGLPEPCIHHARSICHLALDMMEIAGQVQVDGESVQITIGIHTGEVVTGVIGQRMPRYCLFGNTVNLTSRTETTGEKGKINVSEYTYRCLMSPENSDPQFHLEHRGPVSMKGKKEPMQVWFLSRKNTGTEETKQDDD
T1 sequence (Q02108 1-690 partner): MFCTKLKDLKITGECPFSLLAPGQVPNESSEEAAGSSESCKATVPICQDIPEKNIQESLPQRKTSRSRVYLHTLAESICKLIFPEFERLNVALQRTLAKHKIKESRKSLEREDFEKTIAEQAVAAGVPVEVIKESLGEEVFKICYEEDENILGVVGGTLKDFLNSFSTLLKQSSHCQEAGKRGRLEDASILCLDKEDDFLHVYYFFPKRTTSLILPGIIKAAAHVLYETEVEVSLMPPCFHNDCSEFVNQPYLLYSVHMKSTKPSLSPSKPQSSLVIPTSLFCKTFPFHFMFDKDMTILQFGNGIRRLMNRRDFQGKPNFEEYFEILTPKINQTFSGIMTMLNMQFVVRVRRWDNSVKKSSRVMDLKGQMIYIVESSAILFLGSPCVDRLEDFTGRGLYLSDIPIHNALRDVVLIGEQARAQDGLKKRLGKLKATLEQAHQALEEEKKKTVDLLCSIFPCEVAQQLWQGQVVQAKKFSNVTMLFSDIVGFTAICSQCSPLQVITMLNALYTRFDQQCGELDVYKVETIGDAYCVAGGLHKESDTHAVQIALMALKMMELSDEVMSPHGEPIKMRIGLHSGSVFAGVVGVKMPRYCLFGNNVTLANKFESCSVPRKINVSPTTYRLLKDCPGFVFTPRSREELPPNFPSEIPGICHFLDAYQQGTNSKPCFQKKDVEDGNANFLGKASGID

Ms sGC-NT23 [2] = assay: Determination of CO dissociation constants, Ms sGC-NT23; type: binding, Manduca sexta; settings: stimulator 5 μM, versus no stimulator
[3] = system: bacterial H-NOX proteins (Cb SONO, Ns H-NOX, So H-NOX, Sw H-NOX); type: binding
Ms sGC-NT23 [4] = assay: Photoaffinity labeling with IWP-854, western blot, Ms sGC-NT23; type: binding, Manduca sexta
human sGC = target: T2, human sGC (Homo sapiens, UniProt Q02153); assay: cGMP measurement, catalytic activity of human sGC in transfected HEK293T lysate; type: biochemical; settings: stimulator 5 μM
T2 construct: Hs SGC-β1 (β1 1-619-His6); expressed in transfected cells; host or cells: HEK293T
T2 sequence (Q02153 1-619): T1 sequence (Q02153 1-619)
T2 sequence (Q02108 1-690 partner): T1 sequence (Q02108 1-690 partner)

Ms sGC-β1 = assay: Photoaffinity labeling with IWP-854, western blot, Ms sGC-β1; type: binding, Manduca sexta
Compound solubility = type: physicochemical
[5] = system: bacterial H-NOX proteins (Cb SONO, Ns H-NOX, So H-NOX, Sw H-NOX); type: binding; remark: listed apart in the source

Row | SMILES | solubility compared with traditional stimulators [1] | labeling of the α1 subunit (full-length Hs sGC) | enhancement of CO affinity (Ms sGC-NT23 [2]) | amount of IWP-854 required for photoaffinity labeling relative to sGC constructs [3] | labeling of bacterial H-NOX proteins [3] | subunit cross-linked by IWP-854 (Ms sGC-NT23 [4]; IWP-854 1 μM, 15 min UV, anti-biotin western blot) | increase of sGC activity over basal levels (human sGC; absence of added NO) | stimulation of recombinant human sGC, compared with BAY 41-2272 (human sGC; basal and NO stimulated) | increase of sGC activity over basal (human sGC; upon addition of NO (DEA/NO 100 μM)) | labeling of the isolated β1 subunit (Ms sGC-β1; β1 residues 1-380) | competition of IWP-854 labeling [3] | compound solubility (Compound solubility) | competition of IWP-854 cross-linking (Ms sGC-NT23 [4]; BAY 41-2272 1-25 μM against IWP-854 1 μM) | enhancement of CO binding [5] | competition of IWP-854 labeling (Ms sGC-β1; BAY 41-2272 against IWP-854)
1 | O=c1[nH]c(-c2cc(-c3ccon3)n(Cc3ccccc3F)n2)ncc1F [IWP-051] | improved solubility over traditional stimulators | – | – | – | – | – | – | – | – | – | – | – | – | – | –
2 | CC1(CCCN(CCOCCOCCOCCOCCC(=O)NCCOCCOCCOCCOCCOCCOCCOCCOCCOCCOCCOC(C)(C)CCNC(=O)CCCCC2SC[C@@H]3NC(=O)N[C@H]23)c2nc(-c3cc(-c4ccon4)n(Cc4ccccc4F)n3)ncc2F)N=N1 (stereo partly shown) [IWP-854] | – | Faint labeling was observed on the α1 subunit | 34 fold | 10 fold | labeled all four bacterial H-NOX proteins | cross-links exclusively to the β1 subunit | 12 fold | stimulate to a similar extent as BAY 41-2272 | 84 fold | labeled the isolated β1 subunit | – | – | – | – | –
3 | Nc1nc(-c2nn(Cc3ccccc3F)c3ncccc23)ncc1C1CC1 [BAY 41-2272, reference compound] | – | – | 14 fold | – | – | – | – | – | – | – | reduced but not eliminated | poor compound solubility | attenuated IWP-854 cross-linking to Ms sGC-NT23 in a concentration-dependent manner | did not enhance CO binding | failed to diminish IWP-854 labeling
